Assay [1] addresses Recombinant human Bcl-2 protein (Homo sapiens (Human), UniProt P10415). As to the kind of experiment: Bcl-2 TR-FRET Assay. Format: binding. In a few lines: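 Compounds were pre-incubated with 0.05 nM recombinant Bcl-2 for 0.5 h at room temperature in potassium phosphate buffer, pH 7.5. FITC-Bak peptide (0.5 nM) and Tb-cryptate antibody were then added for 1 h. Percent inhibition from TR-FRET signals gave IC50 values.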

For assay [2], the target named is recombinant human Bcl-2 D103Y protein (Homo sapiens (Human), UniProt P10415, D103Y). The assay is described as follows: Bcl-2-D103Y Biochemical Assay (TR-FRET). The format is binding. The settings on record: for IC50: TR-FRET, FITC labeled Bak peptide; for Ratio of Bcl-2 D103Y/Bcl-2 WT: ratio of IC50. The method in brief:
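Recombinant human Bcl-2 D103Y binding to its ligand measured by TR-FRET (ex 337 nm, em 490/520 nm) with increasing compound concentrations. Percent inhibition from the 490/520 nm ratio; IC50 from four-parameter logistic fit.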

Assay [3] relates to RS4;11 (BCL-2 dependent acute lymphoblastic leukemia cell line). The assay is described as follows: RS4;11 Cell Proliferation Assay. The settings on record: Homo sapiens, RS4-11, RS4;11 cells, read-out: Cellular proliferation assay (IC50, nM) RS4. The format is cell-based. The method in brief:
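RS4;11 cells, 50,000 per well in RPMI-1640 with 10% FBS, treated 48 h at 37 °C with a 10-point dilution series topping at 1 μM. Viability read by CellTiter-Glo ATP luminescence; mean IC50 reported.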

Assay [4] deals with BCL-2 G101V knock-in cell line H96 (derive from RS4;11). As to the kind of experiment: Bcl 2-G101V Knock-In RS4;11 Cell Proliferation Assay. The settings on record: Homo sapiens, RS4;11 Bcl-2 G101V knock-in clone H96, 48 hrs, CellTiter-GLO, read-out: Cellular proliferation assay (IC50, nM) RS4. Format: cell-based. In a few lines: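 H96, a CRISPR-generated RS4;11 clone carrying BCL2-G101V knock-in (WES/RNA-seq validated), seeded 50,000 per well and exposed 48 h at 37 °C to 10-point dilutions topping at 1 or 10 μM. Viability by CellTiter-Glo luminescence; mean IC50.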

Assay [5] addresses recombinant human Bcl-2-G101V protein (Homo sapiens (Human), UniProt P10415, G101V). The assay is described as follows: Bcl-2-G101V TR-FRET Assay. The format is binding. The settings on record: Bcl-2 G101V mutant, TR-FRET; read-out: Biochemical assay (IC50, nM) Bcl-2 G101V. In a few lines: (§1)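 IC50 values derive from four-parameter logistic fitting of percent inhibition data. That inhibition of ligand binding to Bcl-2-G101V is computed from the 490 nm/520 nm TR-FRET ratio under 337 nm excitation, over a rising compound concentration series.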

Assay [6] relates to recombinant human Bcl-2-G101V protein. As to the kind of experiment: Bcl-2-G101V TR-FRET Assay. The format is binding. The settings on record: ratio of biochemical IC50 Bcl-2 G101V / Bcl-2 WT. The method in brief: as §1
Where [7] appears, read: Bcl-2 wild type, TR-FRET, read-out: Biochemical assay (IC50, nM) Bcl-2 WT.
Where [8] appears, read: wild type Bcl-2, unit inferred, read-out: Bcl-2 WT.

Experimental findings from patent US20240376097A1, “BCL-2 Inhibitor” (BeiGene Ltd., priority 2020, published 2024) are described below.

Where two headings read alike, the source gives them in different places.

With `CC(C)c1ccccc1C1CN(Cc2ccccc2)CCN1C1CC2(CCN(c3ccc(C(=O)NS(=O)(=O)c4ccc(NCC5(F)CCOCC5)c([N+](=O)[O-])c4)c(Oc4cnc5[nH]ccc5c4)c3)CC2)C1` (stereo not shown) [Example 27, 2-((1H-pyrrolo[2,3-b]pyridin-5-yl)oxy)-4-(2-(4-benzyl-2-(2-isopropylphenyl)piperazin-1-yl)-7-azaspiro[3.5]nonan-7-yl)-N-((4-(((4-fluorotetrahydro-2H-pyran-4-yl)methyl)amino)-3-nitrophenyl)sulfonyl)benzamide], the IC50 in assay [1] (setting [7]) came to 0.27 nM; in assay [1] (setting [8]), 0.27 nM; in assay [2] it was 0.49 nM; in assay [3], 1.05 nM; in assay [4], 7.77 nM; in assay [5], 2.7 nM. In addition, in assay [2], the “Ratio of Bcl-2 D103Y/Bcl-2 WT” value was 1.8. Moreover, the “Ratio of Bcl-2 G101V/WT” value in assay [6] worked out at 10.0.
As for `Cc1ccc(CN2CCN(C3CC4(CCN(c5ccc(C(=O)NS(=O)(=O)c6ccc(NC[C@H]7CC[C@](C)(O)CC7)c([N+](=O)[O-])c6)c(Oc6cnc7[nH]ccc7c6)c5)CC4)C3)C(c3ccccc3C(C)C)C2)cc1` (stereo partly shown) [Example 30, 2-((1H-pyrrolo[2,3-b]pyridin-5-yl)oxy)-N-((4-((((1r,4r)-4-hydroxy-4-methylcyclohexyl)methyl)amino)-3-nitrophenyl)sulfonyl)-4-(2-(2-(2-isopropylphenyl)-4-(4-methylbenzyl)piperazin-1-yl)-7-azaspiro[3.5]nonan-7-yl) benzamide], the IC50 in assay [1] (setting [7]) came out at 0.27 nM; in assay [1] (setting [8]), 0.27 nM; in assay [2], 0.42 nM; in assay [3], 0.53 nM; in assay [4] it was 3.48 nM; in assay [5], 1.1 nM. Also, the “Ratio of Bcl-2 D103Y/Bcl-2 WT” value in assay [2] came to 1.6. For the same molecule, in assay [6], the “Ratio of Bcl-2 G101V/WT” value was 4.1.
As to `CCOc1ccc(CN2CCN(C3CC4(CCN(c5ccc(C(=O)NS(=O)(=O)c6ccc(NC[C@H]7CC[C@](C)(O)CC7)c([N+](=O)[O-])c6)c(Oc6cnc7[nH]ccc7c6)c5)CC4)C3)C(c3ccccc3C(C)C)C2)cc1` (stereo partly shown) [Example 40, 2-((1H-pyrrolo[2,3-b]pyridin-5-yl)oxy)-4-(2-(4-(4-ethoxybenzyl)-2-(2-isopropylphenyl)piperazin-1-yl)-7-azaspiro[3.5]nonan-7-yl)-N-((4-((((1r,4r)-4-hydroxy-4-methylcyclohexyl)methyl)amino)-3-nitrophenyl)sulfonyl)benzamide], the IC50 in assay [1] (setting [7]) worked out at 0.19 nM; in assay [1] (setting [8]) it was 0.19 nM; in assay [2] it was 0.72 nM; in assay [3], 0.85 nM; in assay [4] it was 8.4 nM; in assay [5] it was 1.3 nM. In addition, the “Ratio of Bcl-2 D103Y/Bcl-2 WT” value in assay [2] is recorded as 3.8. For the same molecule, in assay [6], the “Ratio of Bcl-2 G101V/WT” value is 6.8.
Regarding `CC(C)c1ccccc1C1CN(Cc2ccc(C#N)cc2)CCN1C1CC2(CCN(c3ccc(C(=O)NS(=O)(=O)c4ccc(NC[C@H]5CC[C@](C)(O)CC5)c([N+](=O)[O-])c4)c(Oc4cnc5[nH]ccc5c4)c3)CC2)C1` (stereo partly shown) [Example 42, 2-((1H-pyrrolo[2,3-b]pyridin-5-yl)oxy)-4-(2-(4-(4-cyanobenzyl)-2-(2-isopropylphenyl)piperazin-1-yl)-7-azaspiro[3.5]nonan-7-yl)-N-((4-((((1r,4r)-4-hydroxy-4-methylcyclohexyl)methyl)amino)-3-nitrophenyl)sulfonyl)benzamide], the IC50 was 0.41 nM in assay [1] (setting [7]); 0.41 nM in assay [1] (setting [8]); 1.7 nM in assay [2]; 1.8 nM in assay [3]; 13.5 nM in assay [4]; 2.5 nM in assay [5]. Moreover, in assay [2], the “Ratio of Bcl-2 D103Y/Bcl-2 WT” value was found to be 4.1. In addition, the “Ratio of Bcl-2 G101V/WT” value in assay [6] worked out at 6.1.
As to `COc1cccc(CN2CCN(C3CC4(CCN(c5ccc(C(=O)NS(=O)(=O)c6cc7c(c([N+](=O)[O-])c6)N[C@H](C[C@H]6CC[C@H](O)CC6)CO7)c(Oc6cnc7[nH]ccc7c6)c5)CC4)C3)C(c3ccccc3C(C)C)C2)c1` (stereo partly shown) [Example 45], the IC50 in assay [1] (setting [7]) was found to be 0.24 nM; in assay [1] (setting [8]), 0.24 nM; in assay [2] it was 0.54 nM; in assay [3], 0.41 nM; in assay [4], 3.29 nM; in assay [5], 0.95 nM. For the same molecule, in assay [2], the “Ratio of Bcl-2 D103Y/Bcl-2 WT” value was found to be 2.3. In addition, the “Ratio of Bcl-2 G101V/WT” value in assay [6] is 4.0.
With `COc1ccccc1CN1CCN(C2CC3(CCN(c4ccc(C(=O)NS(=O)(=O)c5ccc(NC[C@H]6CC[C@](C)(O)CC6)c([N+](=O)[O-])c5)c(Oc5cnc6[nH]ccc6c5)c4)CC3)C2)C(c2ccccc2C(C)C)C1` (stereo partly shown) [Example 47, 2-((1H-pyrrolo[2,3-b]pyridin-5-yl)oxy)-N-((4-((((1r,4r)-4-hydroxy-4-methylcyclohexyl)methyl)amino)-3-nitrophenyl)sulfonyl)-4-(2-(2-(2-isopropylphenyl)-4-(2-methoxybenzyl)piperazin-1-yl)-7-azaspiro[3.5]nonan-7-yl) benzamide], the IC50 was 0.12 nM in assay [1] (setting [7]); 0.12 nM in assay [1] (setting [8]); 0.4 nM in assay [2]; 1 nM in assay [3]; 5.33 nM in assay [4]; 0.53 nM in assay [5]. Also, in assay [2], the “Ratio of Bcl-2 D103Y/Bcl-2 WT” value is 3.3. Further, the “Ratio of Bcl-2 G101V/WT” value in assay [6] worked out at 4.4.
With `CC(C)c1ccccc1C1CN(Cc2ccc(F)cc2F)CCN1C1CC2(CCN(c3ccc(C(=O)NS(=O)(=O)c4ccc(NC[C@H]5CC[C@](C)(O)CC5)c([N+](=O)[O-])c4)c(Oc4cnc5[nH]ccc5c4)c3)CC2)C1` (stereo partly shown) [Example 50], the IC50 was found to be 0.18 nM in assay [1] (setting [7]); 0.18 nM in assay [1] (setting [8]); 1.2 nM in assay [2]; 0.8 nM in assay [3]; 7.9 nM in assay [4]; 1.2 nM in assay [5]. Moreover, the “Ratio of Bcl-2 D103Y/Bcl-2 WT” value in assay [2] is given as 6.6. The “Ratio of Bcl-2 G101V/WT” value in assay [6] amounted to 6.7.
Regarding `CC(C)c1ccccc1C1CN(Cc2ccc3c(c2)CCCO3)CCN1C1CC2(CCN(c3ccc(C(=O)NS(=O)(=O)c4ccc(NC[C@H]5CC[C@](C)(O)CC5)c([N+](=O)[O-])c4)c(Oc4cnc5[nH]ccc5c4)c3)CC2)C1` (stereo partly shown) [Example 53, 2-((1H-pyrrolo[2,3-b]pyridin-5-yl)oxy)-4-(2-(4-(chroman-6-ylmethyl)-2-(2-isopropylphenyl)piperazin-1-yl)-7-azaspiro[3.5]nonan-7-yl)-N-((4-((((1r,4r)-4-hydroxy-4-methylcyclohexyl)methyl)amino)-3-nitrophenyl)sulfonyl)benzamide], the IC50 in assay [1] (setting [7]) is 0.17 nM; in assay [1] (setting [8]), 0.17 nM; in assay [2] it was 0.38 nM; in assay [3], 0.47 nM; in assay [4], 3.1 nM; in assay [5], 0.6 nM. Further, the “Ratio of Bcl-2 D103Y/Bcl-2 WT” value in assay [2] was 2.2. Besides, the “Ratio of Bcl-2 G101V/WT” value in assay [6] came out at 3.5.
